The source of these data is US20110178024A1, “AMYLOID BETA-PEPTIDES AND METHODS OF USE THEREOF” (Ben Gurion University of the Negev Research and Development …, priority 2008, published 2011).

“Also recorded” adds a separate entry of the source.

Assay [1] relates to Aβ-reactive T-cell lines. The assay is described as follows: Epitope specificity and HLA-DR allele restriction of Aβ-reactive T-cell lines. Format: cell-based, human. Conditions: autologous and semi-autologous PBMCs as antigen-presenting cells. As to the method:
(§1) PBMCs were isolated from the freshly drawn heparinized whole blood of each study participant (N=133) by Ficoll-Paque (Amersham Pharmacia Biotech, Uppsala, Sweden) gradient centrifugation, according to the manufacturer's instructions. Cells were cultured in 30 wells of 96-well round-bottom plates at 2×10^5 cells/well in RPMI medium (containing 2.5% nonautologous serum, 4 mM L-glutamine, 10 mM HEPES, 1 mM sodium pyruvate, and 10 mM nonessential amino acids) in the presence of pure human Aβ1-42 peptide. On the 5th day of culture, 10 U/ml of recombinant human interleukin (IL)-2 was added by replacing half of the medium with IL-2-containing medium. On day 7 the medium was replaced with IL-2-free medium. On day 10, half of the cells from each well were restimulated with irradiated autologous PBMCs in the presence or absence of 5 μg/ml Aβ for 48 hours and then pulsed with [3H] thymidine for 12 hours. Cells w then harvested, their radioactivity measured (in cpm), and the stimulation index (SI; (cpm in the presence of Aβ divided by cpm in the absence of Aβ) determined. Positive wells (SI≧2.5 and Δcpm of at least 2000) obtained in the split-well assay were restimulated, 14 days after their primary stimulation, in the presence of irradiated (7000 R) autologous PBMCs (2×10^5 cells/well) and Aβ1-42. T-cell lines were then supplemented with IL-2 (10 U/ml) after 48 hours and every 2 days thereafter until they reached a resting state.
(§2) Antigen (Ag)-specific proliferative responses were measured by culturing the contents of positive wells from the split-well assay with irradiated PBMCs (2×10^5/well) at 37° C. in duplicate wells in 96-well U-bottom microtiter plates in a final volume of 200 μl of culture medium alone or culture medium containing serially diluted nested Aβ peptides. After 48 hours, 1 μCi of [3H]thymidine (Amersham, Arlington Heights, Ill.) was added to each well in 50 μl of culture medium. The cells were harvested 16 hours later onto fiberglass filters with a cell harvester (Packard, Filtermate 196), and [3H]thymidine incorporation was determined with a Packard Matrix 96 direct counter.
High-resolution HLA typing of PBMCs of the human subjects was carried out at the Brigham and Women's Hospital Clinical Laboratory using the PCR/RFLP method. Genomic DNA was extracted from whole blood or frozen cells. DNA was amplified using locus-specific and group-specific primers for DNA class II loci. DNA fragments were detected using agarose gel electrophoresis and subjected to restriction enzyme digestion, as recommended by the 10th International Histocompatibility Workshop (http://www.ihwg.org/components/ssopr.htm). The DNA fragments were then separated by agarose gel electrophoresis and the specific HLA-DR alleles were analyzed visually.
To identify the HLA-DR alleles that play a role in Aβ immunogenicity, Aβ-reactive T-cell lines were generated from the PBMCs of human subjects as described in Materials and Methods. These T cells were then restimulated with autologous or semi-autologous PBMCs (nonautologous PBMCs bearing one of the autologous DRB1 alleles) to determine their epitope specificity and identify their dominant epitope-presenting HLA-DR alleles. Overall, the PBMCs of 89 of the 133 individuals analyzed in this study yielded positive Aβ-reactive T-cell responses in the split-well assay as described in Materials and Methods and our previous publication ((2003). J Clin Invest 112:415-422). From these 89 PBMC samples, 39 Aβ-reactive T-cell lines were successfully generated and were analyzed for epitope specificity and HLA-DR allele restriction, as shown in FIG. 1. Table 2 lists the HLA-DR alleles whose expression by PBMCs was essential for proliferation of the Aβ-specific T-cell lines. The table also records the frequency of the HLA-DR alleles in our study population and lists the Aβ peptides harboring the dominant T-cell epitopes. […]

Assay [2] relates to Aβ-reactive T-cell line 2 (DRB1 1301/0401). The assay is described as follows: Human T-cell line proliferation assay, T-cell line 2. Conditions: T-cell line 2, autologous PBMCs. It is filed as cell-based. As to the method: as §1, §2
Assay [3] relates to Aβ-reactive T-cell line 1 (DRB1 1501/1502). The assay is described as follows: Human T-cell line proliferation assay, T-cell line 1. It is filed as cell-based. To be noted: for T-cell proliferation ([3H]thymidine incorporation), in words: T-cell line 1, autologous PBMCs. Here is the method:
as §1, §2
(In general: Dividing cells build labelled thymidine or BrdU into new DNA.)

Assay [4] has as its system splenocyte-derived T cells of HLA-DR15 humanized mice. The assay is described as follows: Proliferation assay of mouse-derived T cells, Aβ-immunized DR15 humanized mice. Format: cell-based. Conditions: for T-cell proliferation, in words: mice bearing the DRB1*1501 allele. Here is the method:
(§3) Mice were immunized by subcutaneous injection of Aβ 1-42 ([…]) emulsified in complete Freund's Adjuvant (CFA) H37Ra (Difco, Detroit, Mich., USA) or in incomplete Freund's Adjuvant (IFA; Sigma, Israel), as indicated in Figure legends. When indicated, pertussis toxin (PTX) (List Biological Laboratories, Campbell, Calif., USA) was injected intravenously (200 ng/mouse) on day 0 and again 48 hours later.
(§4) Popliteal lymph nodes or spleens of immunized mice were harvested and cultured (5×10^6 cells/ml) in U-shaped 96-well-plate culture dishes in DMEM containing 10% fetal calf serum, 10 mM HEPES, 1 mM sodium pyruvate, 10 mM nonessential amino acids, 1% Pen/Strep, and […] b-mercaptoethanol. After 72 hours, 3[H]thymidine ([…]) was added. Cells were harvested after 12 hours, and their radioactivity was measured.

Assay [5] relates to splenocyte-derived T cells of HLA-DR4 humanized mice. The assay is described as follows: Proliferation assay of mouse-derived T cells, Aβ-immunized DR4 humanized mice. It is filed as cell-based. Conditions: mice bearing the DR4 allele. As to the method:
as §3, §4

Assay [6] addresses HLA-DR15 (DRB1*1501) (human). The assay is described as follows: cell-based or functional assay.
Assay [7] has as its target HLA-DR4 (DRB1*0401) (human). The assay is described as follows: cell-based or functional assay.

Consider “QKLVFFAEDVGSNKG (listed as Homo sapiens) [Aβ15-29]”, for which the “DRB1 allele with which the T-cell-stimulatory Aβ peptide stimulates Aβ-reactive T-cell lines” value (“DRB1 allele” for short) in assay [1] is “DRB1*1001”.

Regarding “KLVFFAEDVGSNKGA (listed as Homo sapiens) [Aβ16-30]”, the “T-cell proliferation ([3H]thymidine incorporation), in words” value in assay [2] is “stimulated”.

As for “Aβ25-42: T-cell-stimulatory Aβ peptides between Aβ residues 25 and 42 (GSNKGAIIGLMVGGVVIA; Amyloid-beta protein 42; UniProt P05067 696-713, looked up, fragment)”, in assay [1], the “DRB1 allele” value is “DRB1*1501”.

Turning to GSNKGAIIGLMVGGV [Aβ25-39], the “SI (stimulation index), T-cell proliferation” value in assay [3] (T-cell line 1, 5 μg peptide/ml, irradiated autologous PBMCs, 72 hours) is 17.3; in assay [4] (DR15 mice, 10 μg/ml, 72 hours) it was 8.8. For the same molecule, the “T-cell proliferation ([3H]thymidine incorporation), in words” value in assay [3] is recorded as “specifically stimulated”.

Turning to “LVFFAEDVGSNKGAI (listed as Homo sapiens) [Aβ17-31]”, in assay [1], the “DRB1 allele” value was “DRB1*1301”. Moreover, the “T-cell proliferation ([3H]thymidine incorporation), in words” value in assay [2] is “stimulated”.

Regarding “QKLVFFAEDVGSNKGAIIGLMVGGVVIA (listed as Homo sapiens) [Aβ15-42]”, the “DRB1 allele” value in assay [1] is “DRB1*1502; also recorded: DRB1*0301”. In addition, the “T-cell proliferation, in words” value in assay [5] is given as “induced”; in assay [4], “strong T-cell proliferation”. The “T-cell proliferation ([3H]thymidine incorporation), in words” value in assay [3] and in assay [2] was “triggered” each time.

As for “Aβ19-33: nested overlapping Aβ peptide, residues 19-33 (FFAEDVGSNKGAIIG)”, the “T-cell proliferation ([3H]thymidine incorporation), in words” value in assay [2] is “Substantially lower T-cell proliferation”.

“QKLVFFAEDVGSNKGAIIGL (listed as Homo sapiens) [Aβ15-34]”: the “DRB1 allele” value in assay [1] is reported as “DRB1*0101”. Besides, the “T-cell proliferation ([3H]thymidine incorporation), in words” value in assay [2] is “stimulated”.

Take “Aβ1-28: N-terminal fragment of Aβ, residues 1-28; nested overlapping Aβ peptide”: the “T-cell proliferation ([3H]thymidine incorporation), in words” value in assay [3] is “only mild T-cell proliferation”. In assay [4], the “T-cell proliferation, in words” value was “only a mild T-cell response”.

On to “VFFAEDVGSNKGAII (listed as Homo sapiens) [Aβ18-32]”, for which, in assay [1], the “DRB1 allele” value is given as “DRB1*0404; also recorded: DRB1*0401”. Also, in assay [2], the “T-cell proliferation ([3H]thymidine incorporation), in words” value is on record as “stimulated”.

Regarding GSNKGAIIGLMVGGV [Aβ25-39 peptide], in assay [6], the “T-cell line 1 proliferation, SI at 5 µg peptide/ml” value (“T-cell line 1 proliferation, SI” below) came to 17.3 SI and the “T-cell proliferation of splenocytes of Aβ-immunized DR15 mice, SI at 10 µg/ml” value stood at 8.8 SI.

With LVFFAEDVGSNKGAI [Aβ17-31 peptide], in assay [7], the “T-cell line 2 proliferation, SI at 5 µg peptide/ml” value (“T-cell line 2 proliferation, SI” for short) came out at 6.2 SI and the “T-cell proliferation of splenocytes of Aβ-immunized DR4 mice, SI at 10 µg/ml” value was found to be 6.1 SI.

Regarding KGAIIGLMVGGVVIA [Aβ28-42 peptide], in assay [6], the “T-cell line 1 proliferation, SI” value was found to be 12.6 SI and the “T-cell proliferation of splenocytes of Aβ-immunized DR15 mice, SI at 10 µg/ml” value was 12.2 SI.

KLVFFAEDVGSNKGA [Aβ16-30 peptide]: in assay [7], the “T-cell line 2 proliferation, SI” value is 6.4 SI and the “T-cell proliferation of splenocytes of Aβ-immunized DR4 mice, SI at 10 µg/ml” value was found to be 5.9 SI.

For EDVGSNKGAIIGLMV [Aβ22-36 peptide], the “T-cell line 1 proliferation, SI” value in assay [6] turned out to be 10.2 SI.

Turning to VFFAEDVGSNKGAII [Aβ18-32 peptide], in assay [7], the “T-cell line 2 proliferation, SI” value was 6.1 SI and the “T-cell proliferation of splenocytes of Aβ-immunized DR4 mice, SI at 10 µg/ml” value is 9.2 SI.

Turning to QKLVFFAEDVGSNKGAIIGLMVGGVVIA [Aβ15-42 peptide], in assay [6], the “T-cell line 1 proliferation, SI” value was found to be 15.8 SI and the “T-cell proliferation of splenocytes of Aβ-immunized DR15 mice, SI at 10 µg/ml” value is 14.2 SI. Moreover, in assay [7], the “T-cell line 2 proliferation, SI” value was determined as 7.8 SI and the “T-cell proliferation of splenocytes of Aβ-immunized DR4 mice, SI at 10 µg/ml” value is 3.7 SI.
